Measurements: patent US11116778B2, “Prodrugs of ALOX-15 inhibitors and methods of using the same” (EMPIRICO INC., priority 2019, dated 2021)

Assays:
[1] = target: T1, human lipoxygenase (ALOX15 Active Human Recombinant Protein) (Homo sapiens, UniProt P16050); experiment: Recombinant human ALOX15 assay (DPPP fluorescence)
T1 sequence (P16050 1-662): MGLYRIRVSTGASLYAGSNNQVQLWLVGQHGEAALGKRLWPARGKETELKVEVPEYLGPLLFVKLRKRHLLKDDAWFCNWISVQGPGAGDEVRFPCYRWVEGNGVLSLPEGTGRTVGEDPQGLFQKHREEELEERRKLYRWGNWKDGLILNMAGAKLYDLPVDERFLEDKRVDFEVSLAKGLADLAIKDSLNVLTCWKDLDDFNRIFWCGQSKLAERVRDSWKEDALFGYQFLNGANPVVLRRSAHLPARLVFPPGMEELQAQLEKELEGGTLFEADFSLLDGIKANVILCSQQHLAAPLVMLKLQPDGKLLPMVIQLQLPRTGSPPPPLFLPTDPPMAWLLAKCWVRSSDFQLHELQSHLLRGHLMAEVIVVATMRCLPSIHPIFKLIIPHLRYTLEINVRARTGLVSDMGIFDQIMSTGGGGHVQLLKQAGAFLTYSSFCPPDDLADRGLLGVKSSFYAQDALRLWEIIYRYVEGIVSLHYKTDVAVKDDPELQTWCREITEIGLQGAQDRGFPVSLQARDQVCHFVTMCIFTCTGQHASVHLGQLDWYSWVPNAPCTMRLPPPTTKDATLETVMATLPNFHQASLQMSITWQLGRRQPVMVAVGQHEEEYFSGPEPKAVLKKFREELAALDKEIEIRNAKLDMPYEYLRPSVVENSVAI

POSTN mRNA = POSTN mRNA by RT-qPCR in human nasal epithelial primary cells; type: cell-based; details: 5 μM or 1 μM, 3 x 24 hours with 20 ng/mL IL-13
Procedure: (§1) Human nasal epithelial primary cells (HNEpC) (PromoCell GmbH, Heidelberg, Germany) were cultured according to the manufacturer in provided Primary Cell media in 24 well plates at a density of 25,000 cells per well. Cells were treated with 5 μM or 1 μM of compound 5 or vehicle only (water) in media containing 20 ng/mL IL-13 for 24 hours in a 37° C. cell culture incubator. The following day, media was replaced and fresh media containing 20 ng/mL IL-13 and compound 5 or vehicle was added to each well, then incubated again for 24 hours in a 37° C. cell culture incubator. The process was repeated once more for a 24-hour period.
ALOX15 and POSTN mRNA levels were measured by RT-qPCR. […] The level of ALOX15 mRNA from each sample was measured in triplicate by real-time qPCR on an Applied Biosystems 7500 Fast Real-Time PCR machine using the TaqMan Gene Expression Assay for human ALOX15 (ThermoFisher, assay #Hs00993765_g1). The level of PPIA mRNA was measured in biplex reactions using TaqMan Gene Expression Assay (ThermoFisher, assay #Hs99999904_ml) and used to determine relative ALOX15 mRNA levels in each well using the delta-delta Ct method. […] Relative POSTN mRNA levels were measured as above using TaqMan Gene Expression Assay specific for human POSTN mRNA (ThermoFisher, assay #Hs00170815_m1). […]

[2] = target: T2, ALOX15 in human nasal epithelial primary cells (HNEpC) (Homo sapiens, UniProt P16050); experiment: ALOX15 metabolite levels (15-HETE, 13-HODE) in human nasal epithelial primary cells; type: cell-based; details: 5 μM or 1 μM
T2 construct: host or cells: human nasal epithelial primary cells (HNEpC), treated with IL-13
T2 sequence (P16050 1-662): T1 sequence (P16050 1-662)
Procedure: as §1
To determine levels of arachidonic acid and linoleic acid metabolites after compound treatment, cell media was replaced with fresh Primary Cell media without IL-13. ALOX15 substrate (arachidonic acid or linoleic acid) was added to each well at a concentration of 1.5 μM and cells further incubated 37° C. for 1 hour. Media was collected from each well and quenched with an equal volume of LC/MS extraction buffer (methanol, 60 mM ascorbic acid, 0.1% acetic acid).
15-HETE and 13-HODE were quantified using LC-MS/MS (QTrap5500, Applied Biosystems). Q1/Q3 masses: 319.10/219.10 for 15-HETE and 295.10/195.10 Da for 13-HODE. Deuterated 15-HETE (Cayman Chemical) was used as the internal standard. The Q1/Q3 masses are 327.10/184.10 Da for the 15-HETE deuterated standard. […]

alkaline phosphatase = target: T3, alkaline phosphatase (Bos taurus, UniProt P19111); experiment: in vitro; type: in vitro ADME, Calf; details: calf (bovine), pH 8.8
T3 construct: purchased EMD Millipore 524572
T3 sequence (P19111 20-506): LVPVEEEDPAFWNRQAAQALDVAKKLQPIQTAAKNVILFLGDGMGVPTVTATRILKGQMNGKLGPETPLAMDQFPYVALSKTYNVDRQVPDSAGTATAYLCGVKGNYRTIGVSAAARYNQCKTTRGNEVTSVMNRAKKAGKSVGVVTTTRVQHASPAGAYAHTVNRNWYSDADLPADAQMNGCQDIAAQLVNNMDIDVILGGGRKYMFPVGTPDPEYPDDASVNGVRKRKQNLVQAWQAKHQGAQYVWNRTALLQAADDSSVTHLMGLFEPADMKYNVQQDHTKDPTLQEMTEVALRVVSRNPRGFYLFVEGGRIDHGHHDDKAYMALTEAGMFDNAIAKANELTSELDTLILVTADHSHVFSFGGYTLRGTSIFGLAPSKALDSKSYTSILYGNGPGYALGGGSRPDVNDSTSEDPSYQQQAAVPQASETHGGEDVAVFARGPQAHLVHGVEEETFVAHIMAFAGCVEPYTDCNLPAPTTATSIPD
Procedure: (§2) To determine if there was effect of addition phosphatase to the phosphate, 30 units of alkaline phosphatase (EMD Millipore Phosphatase, Alkaline, Calf Intestine catalog number 524572) was added to compound 5 and the UV spectrum (210-600 nm) was measured before and after addition of phosphatase. The was a shift in the absorbance maximum from 250 to 260 nm. The ratio of 250/260 went from 0.924 to 1.067 after phosphatase treatment.
(§3) Phosphatase treatment was repeated with 0.1 unit of phosphatase (56 ug) and 0.6 mM compound 5 at a volume of 100 uL (100 mM Tris pH 8.8, 5 mM MgCl2) and monitored as function of time. […] A unit is defined as the amount that can hydrolyze 1 μmol/min of p-nitrophenyl phosphate (PNP). Meaning that 0.1 unit of enzyme was hydrolyzing 0.015 units of phosphate: a ˜6.6 fold decrease in activity relative to PNP.

[3] = target: T4, alkaline phosphatase (Phosphatase, Alkaline, Calf Intestine) (Bos taurus, UniProt P19111); experiment: in vitro; type: in vitro ADME
T4 construct: purchased EMD Millipore 524572
T4 sequence (P19111 20-506): as above
Procedure: as §2, §3

Q: Which IC50 [1] does the source give for `O=C(Nc1ccc(F)cc1Cl)c1nn(COP(=O)(O)O)c(Cl)c1Cl` [compound 5, (4,5-dichloro-3-((2-chloro-4-fluorophenyl)carbamoyl)-1H-pyrazol-1-yl)methyl dihydrogen phosphate] here?
A: 32 nM

Q: And the “inhibition of ALOX15” value ([1]; in the absence of treatment with phosphatase)?
A: No inhibition was observed

Q: What about the “relative level of POSTN mRNA versus vehicle (FIG. 7)” value (POSTN mRNA) of the same compound?
A: lower

Q: What about the “15-HETE produced versus vehicle alone (FIG. 4)” value ([2]; 3 x 24 hours with 20 ng/mL IL-13, then 1.5 μM arachidonic acid 1 hour) of the same compound?
A: less

Q: What about the “13-HODE produced versus vehicle alone (FIG. 5)” value ([2]; 3 x 24 hours with 20 ng/mL IL-13, then 1.5 μM linoleic acid 1 hour) of the same compound?
A: less

Q: What about the half-life at 0.6 mM (alkaline phosphatase) of the same compound?
A: 2 min

Q: What about the “decrease in phosphatase activity relative to PNP (p-nitrophenyl phosphate)” value ([3]; 0.1 unit of enzyme hydrolyzing 0.015 units of phosphate) of the same compound?
A: ~6.6 fold

Q: What about the “rate at which the phosphatase cleaved the phosphate” value ([3]; 0.1 unit phosphatase, 0.6 mM compound 5, 100 uL) of the same compound?
A: 0.015 µmol/min
